Measurements reported in patent US5110935A, “New compounds which are active against the tissue forms of malaria and method of preparation” (Ire-Celltarg, S.A., priority 1988, dated 1992).
Values joined by “and” are separate entries in the source; they are usually repeats but may differ in a detail not shown here. Equal entries are not always repeated. “Also recorded” adds a separate entry of the source. Where two headings read alike, the source gives them in different places.

What was measured:
[1] = Stability in the presence of fetal calf serum; format: in vitro ADME
Description: The influence of serum on the stability of primaquine (PQ) and its derivatives is determined by incubating these compounds at 37° C. at a concentration of 100 μg/ml in 95% fetal calf serum (FCS, Flow Laboratories) or human serum and phosphate-buffered saline (0.15 M PBSA, pH 7.2) as a control. All the solutions are sterilized by filtration on a Millipore filter (Millex GV) of porosity 0.20 μm.
At interval of time, 1-ml samples are withdrawn and the serum proteins are then extracted from them by precipitation with acetonitrile. For this purpose, an identical volume of acetonitrile is added to each sample. After vigorous mixing in a Vortex mixer, the samples are left for 1 hour at 4° C. and protected from light and then centrifuged for 5 minutes at 12,000 g. The supernatants are collected and then analyzed by HPLC (20- to 50-μl aliquot) under the standard conditions.
The results for the stability of primaquine and its two derivatives in the presence of fetal calf serum are recorded in Table 1; the results are expressed as a % of the initial concentration (time 0) after extraction.
^a : The compounds are incubated at 37° C. in the presence of
fetal calf serum (95% final) and then analyzed by spectrophotometry after
^b : The results represent the relative concentration of primaquine
(PQ) and of derivatives (PQX) in terms of the incubation time, expressed
as a percentage of the initial concentration (time 0) after extraction

man = conditions: human, in vivo, cited from earlier work
Plasmodium berghei = assay: Therapeutic index in mice; format: in vivo, P. berghei; conditions: i.v.; for Therapeutic index (TI): ratio of LD50 to CPD50, mice; for Therapeutic index, fold higher than that of PQ: mice
Excerpt: The therapeutic index is defined as the ratio of the toxicity, expressed as LD50, to the therapeutic activity, expressed as CPD50, in mice.
^b : The therapeutic index (TI) is the ratio of LD50 to […]

human red cells = assay: Hemolytic effect on human red cells; format: cell-based
Description: (§1) Two important toxic effects of PQ were assessed on the two derivatives: the hemolytic effect and the conversion of hemoglobin to methemoglobin.
(§2) A+ blood is washed twice in 0.15M phosphatebuffered saline at pH 7.4 containing 20 mM glucose (GPBS), and then resuspended at a concentration of 50% in the same buffer. To this suspension, an equal volume of compound dissolved in GPBS at different concentrations (test), or of GPBS (control) is added. The final hematocrit of the suspension is 25%. After 60 minutes' incubation at 37° C., the concentration of hemoglobin and methemoglobin is determined on the total suspension, and the concentration of hemoglobin present in the supernatant after centrifugation (extracellular hemoglobin) is determined, by the cyanmethemoglobin and benzidine methods (Fairbanks V.F., 1976, in "Fundamentals of Clinical Chemistry, M.W. Tietz Editors, Saunders").

[2] = Hemolytic effect on human red cells; format: cell-based; conditions: human, red cells, pH 7.4, 1 hour, 37° C., read-out: Hemolysis (% of total hemoglobin concentration); for hemolysis at 1 h, 1000 µM: 1 mM; for hemolysis at 1 h, 2000 µM: 2 mM; for hemolysis at 1 h, 5000 µM: 5 mM; for hemolysis at 1 h, 10000 µM: 10 mM
Description: as §1, §2

[3] = system: persistent tissue forms of P. vivax and P. ovale; conditions: persistent tissue forms of P. vivax and P. ovale in man; cited from earlier work
[4] = Stability at room temperature; format: physicochemical; conditions: for Stability at room temp. under inert atmosphere: argon
[5] = fetal calf serum 95%, 37° C., 0 h
[6] = bovine, fetal calf serum 95%, 37° C., 1 h, read-out: Relative concentration of compound (% of initial concentration)
[7] = bovine, fetal calf serum 95%, 37° C., 1 h, read-out: Relative concentration of primaquine (PQ) from derivative
[8] = bovine, fetal calf serum 95%, 37° C., 2 h, read-out: Relative concentration of compound (% of initial concentration)
[9] = bovine, fetal calf serum 95%, 37° C., 2 h, read-out: Relative concentration of primaquine (PQ) from derivative
[10] = bovine, fetal calf serum 95%, 37° C., 3 h, read-out: Relative concentration of compound (% of initial concentration)
[11] = bovine, fetal calf serum 95%, 37° C., 3 h, read-out: Relative concentration of primaquine (PQ) from derivative
[12] = bovine, fetal calf serum 95%, 37° C., 6 h, read-out: Relative concentration of compound (% of initial concentration)
[13] = bovine, fetal calf serum 95%, 37° C., 6 h, read-out: Relative concentration of primaquine (PQ) from derivative
[14] = bovine, fetal calf serum 95%, 37° C., 24 h, read-out: Relative concentration of compound (% of initial concentration)
[15] = bovine, fetal calf serum 95%, 37° C., 24 h, read-out: Relative concentration of primaquine (PQ) from derivative

Row | Compound | Relative concentration of compound (% of initial concentration) [1, 5] | Stability in the presence of serum ([1]; 37° C.) | Therapeutic index (TI) (Plasmodium berghei) | hemolysis at 1 h, 1000 µM [2] [%] | hemolysis at 1 h, 2000 µM [2] [%] | hemolysis at 1 h, 5000 µM [2] [%] | hemolysis at 1 h, 10000 µM [2] [%] | Stability at room temp. and in the air [4] | Stability at room temp. under inert atmosphere [4] | remaining at 1 h [1, 6] [%] | metabolised at 1 h [1, 7] [%] | remaining at 2 h [1, 8] [%] | metabolised at 2 h [1, 9] [%] | remaining at 3 h [1, 10] [%] | metabolised at 3 h [1, 11] [%] | remaining at 6 h [1, 12] [%] | metabolised at 6 h [1, 13] [%] | remaining at 24 h [1, 14] [%] | metabolised at 24 h [1, 15] [%] | Relative concentration of primaquine (PQ) from derivative [1, 5] | further results
1 | COc1cc(NC(C)CCCN)c2ncccc2c1 (stereo not shown) [Primaquine, 6-methoxy-8-(4-amino-1-methylbutylamino)quinoline, reference compound] | 100% | unstable | 1.7 | 2.1 | 2.3 | 2.8 | 4.7 |  |  |  |  |  |  |  |  |  |  |  |  |  | remaining at 1 h ([1]; bovine, fetal calf serum, fetal calf serum 95%, 37° C., 1 h, read-out: Relative concentration of compound (% of initial concentration)): 98%; remaining at 2 h ([1]; bovine, fetal calf serum, fetal calf serum 95%, 37° C., 2 h, read-out: Relative concentration of compound (% of initial concentration)): 87%; remaining at 3 h ([1]; bovine, fetal calf serum, fetal calf serum 95%, 37° C., 3 h, read-out: Relative concentration of compound (% of initial concentration)): 77%; remaining at 6 h ([1]; bovine, fetal calf serum, fetal calf serum 95%, 37° C., 6 h, read-out: Relative concentration of compound (% of initial concentration)): 34%; Second HPLC peak (Y) from primaquine [1, 5]: 0%; Second HPLC peak (Y) from primaquine ([1]; fetal calf serum 95%, 37° C., 1 h): 0%; Second HPLC peak (Y) from primaquine ([1]; fetal calf serum 95%, 37° C., 2 h): 5%; Second HPLC peak (Y) from primaquine ([1]; fetal calf serum 95%, 37° C., 3 h): 10%; Second HPLC peak (Y) from primaquine ([1]; fetal calf serum 95%, 37° C., 6 h): 11%; Second HPLC peak (Y) from primaquine ([1]; fetal calf serum 95%, 37° C., 24 h): 5%; Relative concentration of compound (% of initial concentration) ([1]; fetal calf serum 95%, 37° C., 24 h, 1440 min): 2%; Relative concentration of compound (% of initial concentration) ([1]; fetal calf serum 95%, 37° C., 24 h, listed as primaquine, 1440 min): 7%; Second peak (Y), maximum ([1]; fetal calf serum, after 2 hours' incubation): ≤ 10%; Toxic effects (words) (man): destabilizes the red cell membrane, inducing a hemolysis; Toxic effects (words) (man; listed as primaquine): hemolysis; also recorded: Methemoglobinuria and gastrointestinal disorders as well as certain effects on the central nervous system; Hemolytic effect (human red cells): concentration-dependent hemolytic effect; Hemolysis (% of total hemoglobin concentration) (human red cells; 10 mM, 1 hour, 37° C., 60 min, 10000 µM): 4.7 (1.7) %; Clinical effectiveness [3]: clinically effective
2 | COc1cc(NC(C)CCCNC(=O)CC[C@H](N)C(=O)O)c2ncccc2c1 (stereo partly drawn) [gGLU-PQ, N-(γ-L-glutamyl)primaquine] | 98 (1) % | a gradual decrease in the relative concentration is observed after 6 hours' incubation | > 19 and 19.4 | 0.27 |  | 0.58 |  | unstable | stable | 96 | 3 | 95 | 4 | 94 | 4 | 83 | 4 | 51 | 4 | 2 (1) % | Duration of stability in serum ([1]; fetal calf serum): at least 3 hours; Therapeutic index, fold higher than that of PQ (Plasmodium berghei): at least 11 -fold
3 | COc1cc(NC(C)CCCNC(=O)[C@@H]2CCC(=O)N2)c2ncccc2c1 (stereo partly drawn) [pGLU-PQ, N-(α-L-pyroglutamyl)primaquine] | 100% | undergoes no modification |  | 0.32 | 0.24 | 0.44 | 2.34 | unstable | stable | 100 | 0 | 101 | 0 | 105 | 0 | 103 | 0 | 107 | 0 | 0% | remaining at 48 h ([1]; bovine, fetal calf serum 95%, 37° C., 48 h, read-out: Relative concentration of compound (% of initial concentration)): 87%; metabolised at 48 h ([1]; bovine, fetal calf serum 95%, 37° C., 48 h, read-out: Relative concentration of primaquine (PQ) from derivative): 0%; Therapeutic index, fold higher than that of PQ (Plasmodium berghei): 9 -fold
